Patent US12661415B2, “Isoindolinone compounds and imaging agents for imaging Huntingtin protein” (CHDI Foundation, Inc., priority 2021, dated 2026)
pIC50: −log10 of the molar value.

Assays:
[1] = Unbound brain fraction (fu,brain) in mouse brain by equilibrium dialysis; assay type: in vitro ADME; conditions: 20% mouse brain homogenate, 5 μM, equilibrium dialysis 6 h at 37° C., average of triplicate
Protocol: Compounds were tested for unbounded brain fraction (or free fraction in brain, fu,brain). It is an accepted standard in the CNS PET imaging field that compounds with low unbound fraction in brain (<5%) likely have high non-specific binding background that is undesirable for the detection of target binding. As a result, fu,brain is an important property in the design of PET ligands for brain imaging [see Zhang et al., Design and selection parameters to accelerate the discovery of novel central nervous system positron emission tomography (PET) ligands and their application in the development of a novel phosphodiesterase 2A PET ligand. J Med Chem 2013, 56 (11), 4568-79; Liu et al., Imaging Mutant Huntingtin Aggregates: Development of a Potential PET Ligand. J Med Chem 2020, 63 (15), 8608-8633].
Determining fu,brain in Mouse Brain by Equilibrium Dialysis. Dialysis membranes (12-14 kDa) (HTDialysis, Connecticut) were soaked in phosphate buffer (10 mM potassium phosphate and 0.8% sodium chloride buffer, pH 7.4 at 37° C.) for a minimum of 1 h, at this time ethanol was added (final concentration of 20% v/v) and membranes continued to soak for 30 min Mouse brain tissue was diluted in phosphate buffer in a […] (w/v) and homogenised using a Precellys 24 (Stretton Scientific, UK) to achieve a final concentration of 20% brain homogenate.
Test compounds prepared as DMSO stocks at 0.5 mM are diluted into brain homogenate to achieve 5 μM final substrate concentration (1% DMSO) and a t=0 sample was prepared by sampling 50 μL of into 400 μL of quench solution (Acetonitrile containing 0.1% formic acid and sulfisoxazole/tolbutamide/imipramine/labetalol 200 nM). Samples were matrix matched with the addition of 50 μL of assay buffer. The HTDialysis Teflon blocks (HTDialysis, Connecticut) were assembled with pre-soaked membrane between each receiver and donor well and clamped in the stainless steel pressure plate (HTDialysis, Connecticut). The lower compartment (acceptor side) was dosed with 120 μL of buffer and the upper compartment (donor side) was dosed with 120 μL of compound in homogenate. All test compounds and controls were completed in triplicate. The HT dialysis plate was sealed and incubated for 6 h at 37° C. shaking at 250 rpm.
Following the incubation, 50 μL of sample was removed from all donor and acceptor wells and transferred into a quench plate containing 400 μL of quench solution. All samples were matrix matched with 50 μL of the alternate blank matrix. Analytical samples were diluted 1:1 with water using the Janus Robot and analysed by LC-MS/MS.
Peak areas of donor and acceptor compartments were compared to determine percent unbound (% fu) and the average of triplicate measurements was reported. Reference T0 sample was used to calculate sample recovery (%). Control compounds were compared with historic and literature values to ensure assay functionality.

[2] = molecular target: T1, MBP-HTT(1-89)Q46-His(6×) (Exon1-Q46) protein aggregates (Homo sapiens, UniProt P42858, INS38QQQQQQQQQQQQQQQQQQQQQQQQQ); experiment: Exon1-Q46 radioligand binding assay (RBA); conditions: aggregated Exon1-Q46 1 μM; 0.3 nM ligand [3H3-methyl]-5-((5-methoxypyridin-2-yl)methoxy)-2-(pyrazin-2-yl)benzo[d]oxazole; 60 minutes at 37° C.; read-out: Potency Range (IC50)
T1 construct: MBP-HTT(1-89)Q46-His(6×); His(6×) (C); made in house
T1 sequence (P42858 with tags, fused parts or gaps with the stated changes): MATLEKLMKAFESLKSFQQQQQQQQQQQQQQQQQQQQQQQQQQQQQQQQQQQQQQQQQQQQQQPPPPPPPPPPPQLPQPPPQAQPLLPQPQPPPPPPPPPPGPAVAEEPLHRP
Protocol: Exon1-Q46 Radioligand Binding Assay
For radioligand binding assays (RBA) MBP-HTT(1-89)Q46-His(6×) (“Exon1-Q46”) protein was generated based on a previous publication (Scherzinger et al. Cell, Vol. 90, 549-558, Aug. 8, 1997). For experiments 30 μM MBP-Exon1-Q46 was incubated with 150 μg/mL thrombin in assay buffer (150 mM NaCl, 50 mM Tris pH 8.0) and 2 mM CaCl2 for 16 hours at 37° C. Aggregated Exon1-Q46 was pelleted by centrifugation for 5 minutes at 13,000 rpm in a bench top centrifuge and re-dissolved in the same volume of assay buffer. Test compounds were prepared by titration in DMSO at 11 concentrations from 63 μM to 2 nM. For the RBA, Exon1-Q46 protein aggregates and test compounds were pre-incubated in assay buffer for 20 minutes at room temperature, in 100 μL/well in a 96-well plate (pp, round bottom). Then, ligand was added in 50 μL/well and incubated for 60 minutes at 37° C. Final assay concentrations were 1 μM to 30 pM test compound, 1 μM Exon1-Q46 protein (equivalent monomer concentration) and 0.3 nM ligand [^3H3-methyl]-5-((5-methoxypyridin-2-yl)methoxy)-2-(pyrazin-2-yl)benzo[d]oxazole. Samples were transferred onto GF/B filter plates and washed 2× with 200 μL PBS using a Filtermate Harvester. After drying filter plates for 1 hour at 55° C., the back of the plates were sealed with foil and 30 μL/well scintillation fluid (Packard MicroScint 40) added, incubated for 15 minutes in the dark and counted in a MicroBeta reader. For analysis, replicate data from independent assay plates were normalized towards 0% and 100% inhibition using control wells of vehicle (0% inhibition) and 1 μM unlabelled [^3H3-methyl]-5-((5-methoxypyridin-2-yl)methoxy)-2-(pyrazin-2-yl)benzo[d]oxazole (100% inhibition). IC50 values were determined with a sigmoidal inhibition model with four variables (top, bottom, slope, IC50) in a global fit using the normalized replicate data.
The results for various example compounds were as provided in the table below (+++<100 nM; ++100−500 nM; +>500 nM; ND: not determined): […]

Structure (SMILES)	Mean Free Brain Fraction (%) [1] [%]	pIC50 [2]
COc1ccc(COc2cc3c(cc2F)C(=O)N(c2cn(C)c(=O)cn2)C3)nc1 [Compound 14-3, 6-Fluoro-5-((5-methoxypyridin-2-yl)methoxy)-2-(4-methyl-5-oxo-4,5-dihydropyrazin-2-yl)isoindolin-1-one]	17.1	> 7.00
Cn1nc(N2Cc3cc(OCc4ccc(OCF)cn4)ccc3C2=O)ccc1=O [Compound 2-2, 5-{[5-(Fluoromethoxy)pyridin-2-yl]methoxy}-2-(1-methyl-6-oxo-1,6-dihydropyridazin-3-yl)-2,3-dihydro-1H-isoindol-1-one]	12.7	> 7.00
COc1ccc(COc2cc3c(cc2F)CN(c2cnc(OC)cn2)C3=O)nc1 [Compound 14-2, 5-Fluoro-2-(5-methoxypyrazin-2-yl)-6-((5-methoxypyridin-2-yl)-methoxy)isoindolin-1-one]	0.7	> 7.00
COc1ccc(COc2ccc3c(c2)CN(c2ccc(=O)[nH]n2)C3=O)nc1 [Compound 6-1, 5-[(5-Methoxypyridin-2-yl)methoxy]-2-(6-oxo-1,6-dihydropyridazin-3-yl)-2,3-dihydro-1H-isoindol-1-one]	11.3	> 7.00
COc1ccc(COc2cnc3c(c2)CN(c2ccc(=O)n(C)n2)C3=O)nc1 [Compound 12-5, 6-{3-[(5-Methoxypyridin-2-yl)methoxy]-7-oxo-5H,6H,7H-pyrrolo[3,4-b]pyridin-6-yl}-2-methyl-2,3-dihydropyridazin-3-one]	37.0	> 7.00
COc1ccc(COc2cc3c(cc2F)CN(c2ccc(=O)n(C)n2)C3=O)nc1 [Compound 12-4, 5-Fluoro-6-[(5-methoxypyridin-2-yl)methoxy]-2-(1-methyl-6-oxo-1,6-dihydropyridazin-3-yl)-2,3-dihydro-1H-isoindol-1-one]	9.8	> 7.00
O=C1c2ccc(OCc3ccc(F)cn3)cc2CN1c1ccc(=O)[nH]n1 [Compound 9-1, 5-[(5-Fluoro-2-pyridyl)methoxy]-2-(6-oxo-1H-pyridazin-3-yl)isoindolin-1-one]	6.7	> 7.00
COc1ccc(COc2cc(F)c3c(c2)C(=O)N(c2ccc(=O)[nH]n2)C3)nc1 [Compound 13-3, 4-Fluoro-6-[(5-methoxy-2-pyridyl)methoxy]-2-(6-oxo-1H-pyridazin-3-yl)isoindolin-1-one]	6.2	> 7.00
COc1ccc(COc2cc3c(cc2F)C(=O)N(c2ccc(=O)[nH]n2)C3)nc1 [Compound 13-1, 6-Fluoro-5-((5-methoxypyridin-2-yl)methoxy)-2-(6-oxo-1,6-dihydropyridazin-3-yl)isoindolin-1-one]	6.6	> 7.00
COc1ccc(COc2cc3c(cc2F)CN(c2cn(C)c(=O)cn2)C3=O)nc1 [Compound 14-1, 5-Fluoro-6-((5-methoxypyridin-2-yl)methoxy)-2-(4-methyl-5-oxo-4,5-dihydropyrazin-2-yl)isoindolin-1-one]	15.5	> 7.00
COc1cnc(COc2ccc3c(c2)CN(c2ccc(=O)n(C)n2)C3=O)c(F)c1 [Compound 1-7, 5-[(3-Fluoro-5-methoxypyridin-2-yl)methoxy]-2-(1-methyl-6-oxo-1,6-dihydropyridazin-3-yl)-2,3-dihydro-1H-isoindol-1-one]	11.9	> 7.00

Further lines, results first:

Mean Free Brain Fraction (%) [1] [%]	pIC50 [2]	Structure (SMILES)
3.0	> 7.00	COc1ccc(COc2ccc3c(c2)CN(c2ccncc2)C3=O)nc1 [Compound 1-4, 5-[(5-Methoxypyridin-2-yl)methoxy]-2-(pyridin-4-yl)-2,3-dihydro-1H-isoindol-1-one]
10.1	> 7.00	[2H]C([2H])(F)C([2H])([2H])Oc1ccc(COc2ccc3c(c2)CN(c2ccc(=O)n(C)n2)C3=O)nc1 [Compound 1-8, 5-({5-[2-Fluoro(1,1,2,2-^2H4)ethoxy]pyridin-2-yl}methoxy)-2-(1-methyl-6-oxo-1,6-dihydropyridazin-3-yl)-2,3-dihydro-1H-isoindol-1-one]
7.4	> 7.00	COc1ccc(COc2ccc3c(c2)CN(c2ccc(=O)n(CF)n2)C3=O)nc1 [Compound 8-1, 2-(1-(Fluoromethyl)-6-oxo-1,6-dihydropyridazin-3-yl)-5-((5-methoxypyridin-2-yl)methoxy)isoindolin-1-one]
5.4	> 7.00	COc1ccc(COc2cc(F)c3c(c2)C(=O)N(c2ccc(=O)n(C)n2)C3)nc1 [Compound 12-3, 4-Fluoro-6-[(5-methoxypyridin-2-yl)methoxy]-2-(1-methyl-6-oxo-1,6-dihydropyridazin-3-yl)-2,3-dihydro-1H-isoindol-1-one]
9.0	> 7.00	COc1ccc(COc2ccc3c(c2)C(=O)N(c2ccc(=O)n(C)n2)C3)nc1 [Compound 1-12, 6-[(5-Methoxypyridin-2-yl)methoxy]-2-(1-methyl-6-oxo-1,6-dihydropyridazin-3-yl)-2,3-dihydro-1H-isoindol-1-one]
6.5	> 7.00	COc1ccc(COc2cc3c(cc2F)CN(c2ccc(=O)[nH]n2)C3=O)nc1 [Compound 13-2, 5-Fluoro-6-[(5-methoxy-2-pyridyl)methoxy]-2-(6-oxo-1H-pyridazin-3-yl)isoindolin-1-one]
65.0	> 7.00	COc1cnc(COc2cnc3c(c2)CN(c2ccc(=O)n(C)n2)C3=O)c(F)c1 [Compound 12-8, 6-{3-[(3-Fluoro-5-methoxypyridin-2-yl)methoxy]-7-oxo-5H,6H,7H-pyrrolo[3,4-b]pyridin-6-yl}-2-methyl-2,3-dihydropyridazin-3-one]
3.8	> 7.00	CC(F)Oc1ccc(COc2ccc3c(c2)CN(c2ccc(=O)n(C)n2)C3=O)nc1 (stereo not shown) [Compound 1-10, 5-{[5-(1-Fluoroethoxy)pyridin-2-yl]methoxy}-2-(1-methyl-6-oxo-1,6-dihydropyridazin-3-yl)-2,3-dihydro-1H-isoindol-1-one]
1.6	> 7.00	COc1cnc(COc2ccc3c(c2)CN(c2ccc(=O)n(C)n2)C3=O)cc1Cl [Compound 1-11, 5-[(4-Chloro-5-methoxypyridin-2-yl)methoxy]-2-(1-methyl-6-oxo-1,6-dihydropyridazin-3-yl)-2,3-dihydro-1H-isoindol-1-one]
